Source: patent publication US20070015741A1, “Novel prodrugs of estradiol” (priority 2005, published 2007)

Test: Stability at 40° C./75% RH, prodrug assayed by HPLC for degradation to parent compound estradiol
Type: physicochemical
Conditions: HPLC assay of prodrug
Method: The following is an example of stability for the preferred compound described previously. Stability was conducted at 40° C./75% RH, with the prodrug being assayed at specific time-points for degradation to the parent compound, estradiol. The time-points for stability were T=0 months, T=2 weeks, T=1 month, and T=3 months. The following outlines the conditions utilized for analysis of the prodrug. Analysis was conducted using High-Performance Liquid Chromatography (HPLC). The retention time for estradiol lactate acetate was approximately 9.0 minutes using these conditions. Conditions for HPLC analysis: [table]

estradiol lactate-acetate
Assay (%) T = 0 (T=0 months): 94.45% | Assay (%) T = 1 (T=1 month): 92.77% | Assay (%) T = 2 W (T=2 weeks): 93.47% | Assay (%) T = 3 (T=3 months): 94.3%
